# Laboratory results: patent US6978724B2, “Copper complexes and their use as wood preservatives” (E.I. Du Pont de Nemours and Company, priority 2002, dated 2005)
# Key:
# [1] = test system: white, hairy fungus; test: Soil burial of pressure-imbibed SYP wooden stakes in flower pots, visual examination; details: SYP stakes imbibed at 5000 ppm copper, 155 psi; about 3/4 buried in moist non-sterile soil, greenhouse at 78° C, after 5 months
# Method: Two pre-weighed SYP wooden stakes (¾″×¾″×12″ or ¾″×1½″×12″) were loaded into a hastaloy pressure vessel and covered with imbibement solution at room temperature. The imbibement solution was prepared by diluting the preparations given in Example 1 with water to a copper concentration of 5000 ppm. The vessel was evacuated for 5 min and then pressured with nitrogen for 1 h at 155 psi at which time the pressure was removed. The stakes were then removed from the vessel and allowed to drip dry. Weights were then recorded to insure that the wood was penetrated with the imbibement solution. The stakes were then dried overnight in a convection oven at 55° C. Weights of the dried stakes were then recorded.
# These treated stakes along with control (untreated) stakes were labeled and buried in a flower pot with about ¾ of the wood below the surface of non-sterile soil. The flower pots were kept moist in a greenhouse at […]. After 5 months, the stakes were visually examined.
# [2] = test system: non-sterile soil; test: Ground burial exposure of treated newsprint and cardboard; details: newsprint soaked 5 min in 5000 ppm copper solution; buried in moist non-sterile garden soil 90 days, 18 to 24° C
# Text: Cellulosic materials, including newsprint and cardboard samples, treated with copper amidoxime or hydroxamic acid complexes are preserved after being buried in non-sterile soil for 90 days. (Procedure adapted from: Hussey, S. W., More Brownie Girl Scout Try-Its, Girl Scouts of the U.S.A., 81 (1989).) In the same soil, untreated newsprint and cardboard samples were consumed microbially resulting in disintegration of the materials. Given that the composition of mechanically pulped newsprint closely resembles that of coniferous trees (Table 1, U.S. Pat. No. 5,582,682), this method serves as a rapid test for screening for preservatives of wood.
# The imbibement solution was prepared by diluting the preparations given in Example 1 with water to a copper concentration of 5000 ppm. Samples of newsprint were soaked in solutions of the copper complexes for 5 min. The paper was removed from the imbibing solution, blotted nearly dry, air-dried overnight, and then placed in sacks made from nylon stockings. The sacks were labeled and closed with nylon twist-ties. Control samples of untreated newsprint were placed in similar nylon sacks. The sacks of treated and untreated newsprint were buried in clay pots containing moist, non-sterile garden soil for 90 days and maintained at approximately 18 to 24° C. After 90 days the sacks were unburied, opened, and the contents examined for decomposition. […]
substance,measurement,setting,value
Copper Complex of the Amidoxime of Sorbitol [Example 1],"visual examination of stakes for covering of white, hairy fungus below the soil surface",[1],showed no such covering
same,decomposition of treated newsprint,[2],still intact and the printing was still legible
